assay: Inhibition of cell division of Strongylocentrotus intermedius fertilized eggs; assay type: functional, Egg

| SMILES | IC50 |
| --- | --- |
| Oc1cc(Br)cc2c1Oc1cc(Br)cc(Br)c1O2 [SPONGIADIOXIN C] | 5.7 µM |
| COc1cc(Br)cc2c1Oc1cc(Br)cc(Br)c1O2 [SPONGIADIOXIN C METHYL ETHER] | 166 µM |
| COc1cc(Br)c(Br)c2c1Oc1cc(Br)cc(Br)c1O2 [SPONGIADIOXIN A METHYL ETHER] | 141 µM |
| COc1cc(Br)cc(Br)c1Oc1cc(Br)cc(Br)c1O | 4.7 µM |
| Oc1cc(Br)c(Br)c2c1Oc1cc(Br)cc(Br)c1O2 [SPONGIADIOXIN A] | 4.8 µM |
| Oc1c(Br)c(Br)cc2c1Oc1cc(Br)cc(Br)c1O2 [SPONGIADIOXIN B] | 1.1 µM |
| COc1c(Br)c(Br)cc2c1Oc1cc(Br)cc(Br)c1O2 [SPONGIADIOXIN B METHYL ETHER] | 94 µM |
| COc1c(Br)cc(Br)cc1Oc1ccc(Br)cc1Br | 145 µM |
| COc1cc(Br)cc(Br)c1Oc1cc(Br)cc(Br)c1OC | 137 µM |
